System: HSV-1
Assay: HSV-1 infection of Vero 76 cells, HSV DNA hybridization capture assay
Type: cell-based, herpes simplex virus 1
Conditions: Human alphaherpesvirus 1; HSV-1 (MOI=0.001) in Vero 76 cells, 40–48 hours at 37° C., viral DNA by hybridization/chemiluminescence
Procedure: Vero 76 cells were maintained in MEM with Earle's salts, L-glutamine, 8% FBS (Hyclone, A-1111-L) and 100 units/mL Penicillin-100 μg/mL Streptomycin. For assay conditions, FBS was reduced to 2%. Cells are seeded into 96-well tissue culture plates at a density of 5×10^4 cells/well after being incubated for 45 min at 37° C. in the presence of HSV-1 or HSV-2 (MOI=0.001). Test compounds are added to the wells and the plates are incubated at 37° C. for 40–48 hours. Cell lysates are prepared as follows: media was removed and replaced with 150 μL/well 0.2 N NaOH with 1% Igepal CA 630 or NP-40. Plates were incubated up to 14 days at room temperature in a humidified chamber to prevent evaporation.
For the detection probe, a gel-purified, digoxigenin-labeled, […] PCR fragment of the HSV UL-15 sequence was utilized. PCR conditions included 0.5 μM primers, 180 μM dTP, 20 μM dUTP-digoxigenin (Boehringer Mannheim 1558706), 200 μM each of dATP, dCTP, and dGTP, 1×PCR Buffer II (Perkin Elmer), 2.5 mM MgCl2, 0.025 units/μL of AmpliTaq Gold polymerase (Perkin Elmer), and 5 ng of gel-purified HSV DNA per 100 μL Extension conditions were 10 min at 95° C., followed by 30 cycles of 95° C. for 1 min, 55° C. for 30 sec, and 72° C. for 2 min. The amplification was completed with a 10-min incubation at 72° C. Primers were selected to amplify a 728 bp probe spanning a section of the HSV1 UL15 open reading frame (nucleotides 249–977). Single-stranded transcripts were purified with Promega M13 Wizard kits. The final product was mixed 1:1 with a mixture of 6 M GuSCN, 100 mM EDTA and 200 μg/mL herring sperm DNA and stored at 4° C.
The capture DNA plasmid (HSV UL13 region in pUC) was linearized by cutting with Xba I, denatured for 15 min at 95° C. and diluted immediately into Reacti-Bind DNA Coating Solution (Pierce, 17250, diluted 1:1 with TE buffer, pH 8) at 1 ng/μL 75 μL/well were added to Corning (#3922 or 9690) white 96-well plates and incubated at room temperature for at least 4 hrs before washing twice with 300 μL/well 0.2×SSC/0.05% Tween-20 (SSC/T buffer). The plates were then incubated overnight at room temperature with 150 μL/well 0.2 N NaOH, 1% IGEPAL and 10 μg/mL herring sperm DNA.
Twenty-seven (27) μL of cell lysate was combined with 45 μL of hybridization solution (final concentration: 3M GuSCN, 50 mM EDTA, 100 μg/ml salmon sperm DNA, 5× Denhardt's solution, 0.25×APE, and 5 ng of the digoxigenin-labeled detection probe). APE is 1.5 M NH4-acetate, 0.15 M ammonium phosphate monobasic, and 5 mM EDTA adjusted to pH 6.0. Mineral oil (50 μL) was added to prevent evaporation. The hybridization plates were incubated at 95° C. for 10 minutes to denature the DNA, then incubated at 42° C. overnight. The wells were washed 6× with 300 μL/well SSC/T buffer then incubated with 75 μL/well anti-digoxigenin-HRP-conjugated antibody (Boehringer Mannheim 1207733, 1:5000 in TE) for 30 min at room temperature. The wells were washed 6× with 300 μL/well with PBS/0.05% Tween-20 before 75 μL/well SuperSignal LBA substrate (Pierce) was added. The plates were incubated at room temperature for 30 minutes and chemiluminescence was measured in a Wallac Victor reader.
The following results were obtained for HSV-1.

| IC50 | Compound |
| --- | --- |
| 2100 nM | CSc1nccc(-c2c(CNC(C)C)nn3ccccc23)n1 [Example 24, N-({3-[2-(Methylsulfanyl)-4-pyrimidinyl]pyrazolo[1,5-a]pyridin-2-yl}methyl)-2-propanamine] |
| > 40000 nM | CSc1nccc(-c2c(C3CC3)nn3ccccc23)n1 [Example 34, 2-Cyclopropyl-3-[2-(methylthio)pyrimidin-4-yl]pyrazolo[1,5-a]pyridine] |

From patent US7153863B2, “Therapeutic compounds based on pyrazolopyridline derivatives” (SmithKline Beecham Corporation, priority 2002, dated 2006)
